pIC50: −log10 of the molar value.
How the values were obtained:
[1] = target: T1, hyaluronidase from bovine testes type I-S (Bos taurus, UniProt F1MTV1); assay: turbidimetric hyaluronidase inhibition assay; format: biochemical; settings: substrate hyaluronic acid 0.03%, with bovine serum albumin 0.1%; per mL of the enzyme solution; read-out: IC50 (μg/mL) ^a
T1 construct: gene SPAM1; native commercial preparation from bovine testes (Sigma-Aldrich, type I-S)
T1 sequence (F1MTV1 36-553): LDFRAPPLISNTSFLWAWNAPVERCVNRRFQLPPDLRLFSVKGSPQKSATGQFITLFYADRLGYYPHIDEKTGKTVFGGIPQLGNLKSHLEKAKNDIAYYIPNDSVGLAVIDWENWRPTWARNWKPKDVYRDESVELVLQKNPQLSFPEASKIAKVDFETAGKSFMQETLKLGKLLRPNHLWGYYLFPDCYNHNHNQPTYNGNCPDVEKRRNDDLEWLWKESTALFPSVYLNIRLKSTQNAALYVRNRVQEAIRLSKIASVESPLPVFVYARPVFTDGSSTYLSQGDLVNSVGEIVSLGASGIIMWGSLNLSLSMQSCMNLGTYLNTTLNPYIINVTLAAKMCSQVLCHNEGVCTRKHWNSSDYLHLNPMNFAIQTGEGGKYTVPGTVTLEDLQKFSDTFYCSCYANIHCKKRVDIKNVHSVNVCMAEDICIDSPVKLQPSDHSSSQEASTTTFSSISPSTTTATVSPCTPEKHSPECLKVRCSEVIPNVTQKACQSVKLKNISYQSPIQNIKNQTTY
Excerpt: turbidimetric hyaluronidase inhibition assay on hyaluronidase from bovine testes type I-S

thrombin = target: T2, thrombin (Bos taurus, UniProt P00735); assay: chromogenic amidolytic assay (S-2238), […] nm; format: biochemical; settings: read-out: % inhibition at 50 μg/mL
T2 construct: gene F2; Biomed Lublin thrombin is usually of bovine origin, human (P00734) not excluded

pIC50 [1] | inhibition at 50 µg/mL (thrombin) [%] | Structure (SMILES)
< 3.47 | – | O=C(/C=C/c1ccc(O)c(O)c1)O[C@@H]1C[C@](O)(C(=O)O)C[C@@H](O)[C@H]1O [CHA, chlorogenic acid]
< 3.37 | – | O=c1c(O[C@@H]2O[C@H](CO)[C@@H](O)[C@H](O)[C@H]2O)c(-c2ccc(O)c(O)c2)oc2cc(O)cc(O)c12 [IQ, isoquercitrin]
< 3.68 | 27 | Oc1cc(O)c2c(c1)O[C@H](c1ccc(O)c(O)c1)[C@H](O)[C@H]2c1c(O)cc(O)c2c1O[C@H](c1ccc(O)c(O)c1)[C@H](O)C2 [PB2, procyanidin B2]
< 3.50 | – | O=c1c(O[C@@H]2O[C@H](CO)[C@@H](O)[C@H](O)[C@H]2O[C@@H]2O[C@H](CO)[C@@H](O)[C@H](O)[C@H]2O)c(-c2ccc(O)c(O)c2)oc2cc(O)cc(O)c12 [SQ, quercetin 3-O-β-sophoroside]

Reference: article PMC8698768, “The Effects of Sorbus aucuparia L. Fruit Extracts on Oxidative/Nitrative Modifications of Human Fibrinogen, Impact on Enzymatic Properties of Thrombin, and Hyaluronidase Activity In Vitro” (Antioxidants, 2021)
